Source: patent publication US9688698B2, “Heteroaromatic compounds and their use as dopamine D1 ligands” (PFIZER INC., priority 2014, dated 2017)

biological target: T1, Human D1 Receptor (Homo sapiens, UniProt P21728); assay: Human D1 Receptor Binding Assay ([3H]-SCH23390 competition binding); details: over-expressing LTK human cell lines; 0.5 nM [3H]-SCH23390; 30 min at 37° C.; footnote a = geometric mean of ≧5 determinations, footnote b = single determination; read-out: Human D1 Receptor Binding, Ki (nM); Geometric mean of 2-4 determinations (unless otherwise indicated)
T1 construct: expressed in transfected cells; host or cells: LTK cell line over-expressing the D1 receptor
Procedure: The affinity of the compounds described herein was determined by competition binding assays similar to those described in Ryman-Rasmussen et al., “Differential activation of adenylate cyclase and receptor internalization by novel dopamine D1 receptor agonists”, Molecular Pharmacology 68(4):1039-1048 (2005).
D1 binding assays were performed using over-expressing LTK human cell lines. […] These ligand and tissue concentrations were used in time course studies to determine linearity and equilibrium conditions for binding. Binding was at equilibrium with the specified amount of tissue in 30 minutes at 37° C. […] The pellet was resuspended in assay buffer [50 mM Tris (pH 7.4@RT) containing 4 mM MgSO4 and 0.5 mM EDTA]. […] Non-specific binding was determined by radioligand binding in the presence of a saturating concentration of (+)-Butaclamol (10 μM), a D1 antagonist. After a 30 minute incubation period at 37° C., assay samples were rapidly filtered through Unifilter-96 GF/B PEI-coated filter plates and rinsed with 50 mM Tris buffer (pH 7.4 at 4° C.). […] The IC50 value (concentration at which 50% inhibition of specific binding occurs) was calculated by linear regression of the concentration-response data in Microsoft Excel. Ki values were calculated according to the Cheng-Prusoff equation: […]

T1 sequence (P21728 whole entry): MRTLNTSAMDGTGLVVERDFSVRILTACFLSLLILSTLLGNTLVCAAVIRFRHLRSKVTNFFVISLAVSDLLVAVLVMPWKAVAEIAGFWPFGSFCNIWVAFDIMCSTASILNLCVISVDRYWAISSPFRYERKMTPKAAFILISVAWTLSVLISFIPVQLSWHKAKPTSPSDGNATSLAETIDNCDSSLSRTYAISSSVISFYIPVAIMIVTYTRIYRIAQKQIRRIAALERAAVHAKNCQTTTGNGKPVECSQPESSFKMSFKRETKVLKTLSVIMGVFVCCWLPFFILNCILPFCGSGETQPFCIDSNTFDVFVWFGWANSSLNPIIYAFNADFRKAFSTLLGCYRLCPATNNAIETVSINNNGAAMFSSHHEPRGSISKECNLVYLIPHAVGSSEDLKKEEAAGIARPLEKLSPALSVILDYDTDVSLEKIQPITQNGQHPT

Q: With `Cc1ncnc(C)c1-c1ccc(Oc2ncnc3ccsc23)c(F)c1C` [Example 20, 4-[4-(4,6-dimethylpyrimidin-5-yl)-2-fluoro-3-methylphenoxy]thieno[3,2-d]pyrimidine] as the compound, how does the Ki read?
A: The Ki was 121 nM.

Q: With `Cc1cc(Oc2nccc3cc[nH]c23)ccc1-c1c(C)ncnc1C` [Example 12, 7-[4-(4,6-dimethylpyrimidin-5-yl)-3-methylphenoxy]-1H-pyrrolo[2,3-c]pyridine] as the compound, how does the Ki read?
A: Its Ki is 403 nM.

Q: With `Cc1ncnc(C)c1-c1cc(F)c(Oc2ncnc3ccsc23)c(F)c1` [Example 33, 4-[4-(4,6-dimethylpyrimidin-5-yl)-2,6-difluorophenoxy]thieno[3,2-d]pyrimidine] as the compound, how does the Ki read?
A: The Ki was 864 nM.

Q: Which Ki does the source give for `Cc1cc(Oc2ncnc3ccsc23)ccc1-c1c(C)c(=O)[nH]c(=O)n1C` (single isomer, unassigned) [Example 2, (−)-1,5-dimethyl-6-[2-methyl-4-(thieno[3,2-d]pyrimidin-4-yloxy)phenyl]pyrimidine-2,4(1H,3H)-dione] here?
A: Its Ki is 1.8 nM.

Q: With `Cc1ncnc(C)c1-c1ccc(Oc2ncnc3ccsc23)c(F)c1` [Example 19, 4-[4-(4,6-dimethylpyrimidin-5-yl)-2-fluorophenoxy]thieno[3,2-d]pyrimidine] as the compound, how does the Ki read?
A: Its Ki is 117 nM.

Q: How did the Ki turn out when `Cc1cc(Oc2nccc3ncsc23)ccc1-c1c(C)ncc(=O)n1C` (single isomer, unassigned) [Example 30, (+)-1,5-dimethyl-6-[2-methyl-4-([1,3]thiazolo[5,4-c]pyridin-4-yloxy)phenyl]pyrazin-2(1H)-one] was run?
A: The Ki was 116 nM.

Q: For `Cc1cc(Oc2nccc3ccsc23)ccc1-c1c(C)ncnc1C#N` (single isomer, unassigned; ent-2) [Example 46, 6-methyl-5-[2-methyl-4-(thieno[2,3-c]pyridin-7-yloxy)phenyl]pyrimidine-4-carbonitrile, ENT-2], which Ki is on record?
A: Its Ki is 15.1 nM.

Q: With `Cc1cc(Oc2nccc3cn[nH]c23)ccc1-c1c(C)n[nH]c(=O)c1C` [Example 25, 4,6-dimethyl-5-[2-methyl-4-(1H-pyrazolo[3,4-c]pyridin-7-yloxy)phenyl]pyridazin-3(2H)-one] as the compound, how does the Ki read?
A: Its Ki is 120 nM.

Q: `Cc1cc(Oc2nccc3ncsc23)ccc1-c1c(C)ncc2nccn12` (single isomer, unassigned; ent-1) [Example 61, 4-[3-methyl-4-(6-methylimidazo[1,2-a]pyrazin-5-yl)phenoxy][1,3]thiazolo[5,4-c]pyridine, ENT-1] was tested. Which Ki did it give?
A: Its Ki is 151 nM.

Q: For `Cc1ncnc(C)c1-c1cc(F)c(Oc2nccc3ncsc23)c(F)c1` [Example 32, 4[4-(4,6-dimethylpyrimidin-5-yl)-2,6-difluorophenoxy][1,3]thiazolo[5,4-c]pyridine], which Ki is on record?
A: Its Ki is 1060 nM.

Q: For `COc1cc(Oc2ncnc3ccsc23)ccc1-c1c(C)ncnc1C` [Example 23, 4-[4-(4,6-dimethylpyrimidin-5-yl)-3-methoxyphenoxy]thieno[3,2-d]pyrimidine], which Ki is on record?
A: The Ki was 178 nM.

Q: With `COc1cc(Oc2nccc3ccsc23)ccc1-c1c(C)ncnc1C` [Example 48, 7-[4-(4,6-dimethylpyrimidin-5-yl)-3-methoxyphenoxy]thieno[2,3-c]pyridine] as the compound, how does the Ki read?
A: The Ki was 13.5 nM.

Q: For `Cc1cc(Oc2nccc3ccsc23)ccc1-c1c(C)ncc(=O)n1C` [Example 5, 1,5-dimethyl-6-[2-methyl-4-(thieno[2,3-c]pyridin-7-yloxy)phenyl]pyrazin-2(1H)-one], which Ki is on record?
A: Its Ki is 1.6 nM.

Q: Which Ki does the source give for `Cc1cc(Oc2nccc3cc[nH]c23)ccc1-c1nccnc1C` [Example 53, 7-[3-methyl-4-(3-methylpyrazin-2-yl)phenoxy]-1H-pyrrolo[2,3-c]pyridine] here?
A: The Ki was 1890 nM.

Q: Which Ki does the source give for `Cc1cc(Oc2nccc3ccsc23)ccc1-c1c(C)ncnc1C` [Example 6, 7-[4-(4,6-dimethylpyrimidin-5-yl)-3-methylphenoxy]thieno[2,3-c]pyridine] here?
A: The Ki was 5.8 nM.

Q: For `Cc1cc(Oc2nccc3cc[nH]c23)ccc1-c1c(C)n[nH]c(=O)c1C` [Example 69, 4,6-dimethyl-5-[2-methyl-4-(1H-pyrrolo[2,3-c]pyridin-7-yloxy)phenyl]pyridazin-3(2H)-one], which Ki is on record?
A: The Ki was 126 nM.

Q: For `Cc1ncnc(C)c1-c1ccc(Oc2nccc3ncsc23)cc1C#N` [Example 7, 2-(4,6-dimethylpyrimidin-5-yl)-5-([1,3]thiazolo[5,4-c]pyridin-4-yloxy)benzonitrile], which Ki is on record?
A: The Ki was 184 nM.

Q: `Cc1ncnc(C)c1-c1ccc(Oc2nccc3ccsc23)c(F)c1C` [Example 40, 7-[4-(4,6-dimethylpyrimidin-5-yl)-2-fluoro-3-methylphenoxy]thieno[2,3-c]pyridine] was tested. Which Ki did it give?
A: Its Ki is 40.7 nM.

Q: Which Ki does the source give for `Cc1n[nH]c(=O)c(C)c1-c1ccc(Oc2ncnc3ccsc23)cc1` [Example 67, 4,6-dimethyl-5-[4-(thieno[3,2-d]pyrimidin-4-yloxy)phenyl]pyridazin-3(2H)-one] here?
A: The Ki was 17.7 nM.

Q: With `COc1cc(Oc2nccc3ccsc23)ccc1-c1c(C)cnnc1C` [Example 42, 7-[4-(3,5-dimethylpyridazin-4-yl)-3-methoxyphenoxy]thieno[2,3-c]pyridine] as the compound, how does the Ki read?
A: The Ki was 17.7 nM.

Q: With `Cc1cc(Oc2nccc3ncsc23)ccc1-c1cn[nH]c(=O)c1C` [Example 27, 4-methyl-5-[2-methyl-4-([1,3]thiazolo[5,4-c]pyridin-4-yloxy)phenyl]pyridazin-3(2H)-one] as the compound, how does the Ki read?
A: The Ki was 186 nM.

Q: For `Cc1ncnc(C)c1-c1cc(F)c(Oc2nccc3ccsc23)cc1F` [Example 41, 7-[4-(4,6-dimethylpyrimidin-5-yl)-2,5-difluorophenoxy]thieno[2,3-c]pyridine], which Ki is on record?
A: The Ki was 24.3 nM.

Q: With `Cc1cc(Oc2nccc3ncsc23)ccc1-c1c(C)ncnc1C` [Example 58, 4-[4-(4,6-dimethylpyrimidin-5-yl)-3-methylphenoxy][1,3]thiazolo[5,4-c]pyridine] as the compound, how does the Ki read?
A: Its Ki is 75.1 nM.

Q: With `Cc1cc(Oc2nccc3ncsc23)ccc1-c1c(C)cnnc1C` (single isomer, unassigned) [Example 64, (+)-4-[4-(3,5-dimethylpyridazin-4-yl)-3-methylphenoxy][1,3]thiazolo[5,4-c]pyridine] as the compound, how does the Ki read?
A: Its Ki is 32.3 nM.

Q: `Cc1cc(Oc2nccc3cnsc23)ccc1-c1c(C)n[nH]c(=O)c1C` [Example 3, 4,6-dimethyl-5-[2-methyl-4-([1,2]thiazolo[5,4-c]pyridin-7-yloxy)phenyl]pyridazin-3(2H)-one] was tested. Which Ki did it give?
A: The Ki was 10.9 nM.

Q: With `Cc1ncnc(C)c1-c1ccc(Oc2nccc3ncsc23)cc1Cl` [Example 31, 4-[3-chloro-4-(4,6-dimethylpyrimidin-5-yl)phenoxy][1,3]thiazolo[5,4-c]pyridine] as the compound, how does the Ki read?
A: The Ki was 71.9 nM.

Q: How did the Ki turn out when `Cc1cc(Oc2ncnc3ccsc23)ccc1-c1c(C)c(=O)[nH]c(=O)n1C` (single isomer, unassigned) [Example 1, (+)-1,5-dimethyl-6-[2-methyl-4-(thieno[3,2-d]pyrimidin-4-yloxy)phenyl]pyrimidine-2,4(1H,3H)-dione] was run?
A: Its Ki is 4.1 nM.

Q: With `Cc1cc(Oc2nccc3ccoc23)ccc1-c1c(C)ncnc1C#N` [Example 52, 5-[4-(furo[2,3-c]pyridin-7-yloxy)-2-methylphenyl]-6-methylpyrimidine-4-carbonitrile] as the compound, how does the Ki read?
A: Its Ki is 212 nM.

Q: `Cc1cc(Oc2nccc3ncsc23)ccc1-c1c(C)ncc(=O)n1C` [Example 16, 1,5-dimethyl-6-[2-methyl-4-([1,3]thiazolo[5,4-c]pyridin-4-yloxy)phenyl]pyrazin-2(1H)-one] was tested. Which Ki did it give?
A: The Ki was 82.8 nM.

Q: Which Ki does the source give for `Cc1cc(Oc2nccc3ncsc23)ccc1-c1c(C)ncc(=O)n1C` (single isomer, unassigned) [Example 29, (−)-1,5-dimethyl-6-[2-methyl-4-([1,3]thiazolo[5,4-c]pyridin-4-yloxy)phenyl]pyrazin-2(1H)-one] here?
A: Its Ki is 40.6 nM.
